Laboratory results taken from ChEMBL document CHEMBL1201862, “PubChem BioAssay data set” (2004).
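Growth conditions: 96-well plates. Treatment: test compound, 48 hours, 5 concentrations. Analysis: linear interpolation between bracketing concentrations; unreached endpoints set to highest concentration. At the GI50, growth is halved.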 Activity calls are given as the source filed them. Rule as the data show it: active = GI50 up to about 1.1 µM and inactive = higher.

Legend:
Assay in all cases: growth of human tumour cells (NCI), 48 h
786-0 = tested on: 786-0
A498 = tested on: A498
A549 = tested on: A549
ACHN = tested on: ACHN
BT-549 = tested on: BT-549
CAKI-1 = tested on: CAKI-1
CCRF-CEM = tested on: CCRF-CEM
COLO 205 = tested on: COLO 205
DU-145 = tested on: DU-145
EKVX = tested on: EKVX
HCC 2998 = tested on: HCC 2998
HCT-116 = tested on: HCT-116
HCT-15 = tested on: HCT-15
HOP-62 = tested on: HOP-62
HOP-92 = tested on: HOP-92
HT-29 = tested on: HT-29
Hs-578T = tested on: Hs-578T
IGROV-1 = tested on: IGROV-1
K562 = tested on: K562
KM12 = tested on: KM12
LOX IMVI = tested on: LOX IMVI
M14 = tested on: M14
MCF7 = tested on: MCF7
MDA-MB-231 = tested on: MDA-MB-231
MDA-MB-435 = tested on: MDA-MB-435
MDA-N = tested on: MDA-N
MOLT-4 = tested on: MOLT-4
Malme-3M = tested on: Malme-3M
NCI-H226 = tested on: NCI-H226
NCI-H23 = tested on: NCI-H23
NCI-H460 = tested on: NCI-H460
NCI-H522 = tested on: NCI-H522
NCI/ADR-RES = tested on: NCI/ADR-RES
OVCAR-3 = tested on: OVCAR-3
OVCAR-4 = tested on: OVCAR-4
OVCAR-5 = tested on: OVCAR-5
OVCAR-8 = tested on: OVCAR-8
PC-3 = tested on: PC-3
RPMI-8226 = tested on: RPMI-8226
RXF 393 = tested on: RXF 393
SF-268 = tested on: SF-268
SF-295 = tested on: SF-295
SF-539 = tested on: SF-539
SK-MEL-28 = tested on: SK-MEL-28
SK-MEL-2 = tested on: SK-MEL-2
SK-MEL-5 = tested on: SK-MEL-5
SK-OV-3 = tested on: SK-OV-3
SN12C = tested on: SN12C
SNB-19 = tested on: SNB-19
SNB-75 = tested on: SNB-75
SW-620 = tested on: SW-620
T47D = tested on: T47D
TK-10 = tested on: TK-10
U-251 = tested on: U-251
UACC-257 = tested on: UACC-257
UACC-62 = tested on: UACC-62
UO-31 = tested on: UO-31
HL-60 = tested on: HL-60
SR = tested on: SR

CC(C)(C)OC(=O)NCCCCC(N)C(N)=O (centres undefined)
GI50 (786-0): > 100 µM (inactive) | GI50 (A498): > 100 µM (inactive) | GI50 (A549): > 100 µM (inactive) | GI50 (ACHN): > 100 µM (inactive) | GI50 (BT-549): > 100 µM (inactive) | GI50 (CAKI-1): > 100 µM (inactive) | GI50 (CCRF-CEM): > 100 µM (inactive) | GI50 (COLO 205): > 100 µM (inactive) | GI50 (DU-145): > 100 µM (inactive) | GI50 (EKVX): > 100 µM (inactive) | GI50 (HCC 2998): > 100 µM (inactive) | GI50 (HCT-116): > 100 µM (inactive) | GI50 (HCT-15): > 100 µM | GI50 (HOP-62): > 100 µM (inactive) | GI50 (HOP-92): > 100 µM (inactive) | GI50 (HT-29): > 100 µM (inactive) | GI50 (Hs-578T): 45.7 µM (inactive) | GI50 (IGROV-1): > 100 µM (inactive) | GI50 (K562): > 100 µM (inactive) | GI50 (KM12): > 100 µM (inactive) | GI50 (LOX IMVI): > 100 µM (inactive) | GI50 (M14): > 100 µM (inactive) | GI50 (MCF7): > 100 µM (inactive) | GI50 (MDA-MB-231): > 100 µM (inactive) | GI50 (MDA-MB-435): > 100 µM (inactive) | GI50 (MDA-N): > 100 µM (inactive) | GI50 (MOLT-4): > 100 µM (inactive) | GI50 (Malme-3M): > 100 µM (inactive) | GI50 (NCI-H226): > 100 µM (inactive) | GI50 (NCI-H23): > 100 µM (inactive) | GI50 (NCI-H460): > 100 µM (inactive) | GI50 (NCI-H522): > 100 µM (inactive) | GI50 (NCI/ADR-RES): > 100 µM (inactive) | GI50 (OVCAR-3): > 100 µM (inactive) | GI50 (OVCAR-4): > 100 µM (inactive) | GI50 (OVCAR-5): > 100 µM (inactive) | GI50 (OVCAR-8): > 100 µM (inactive) | GI50 (PC-3): > 100 µM (inactive) | GI50 (RPMI-8226): > 100 µM (inactive) | GI50 (RXF 393): > 100 µM (inactive) | GI50 (SF-268): > 100 µM (inactive) | GI50 (SF-295): > 100 µM (inactive) | GI50 (SF-539): > 100 µM (inactive) | GI50 (SK-MEL-28): > 100 µM (inactive) | GI50 (SK-MEL-2): > 100 µM (inactive) | GI50 (SK-MEL-5): 78.7 µM (inactive) | GI50 (SK-OV-3): 54.7 µM (inactive) | GI50 (SN12C): > 100 µM (inactive) | GI50 (SNB-19): > 100 µM (inactive) | GI50 (SNB-75): > 100 µM (inactive) | GI50 (SW-620): > 100 µM (inactive) | GI50 (T47D): > 100 µM (inactive) | GI50 (TK-10): > 100 µM (inactive) | GI50 (U-251): > 100 µM (inactive) | GI50 (UACC-257): > 100 µM (inactive) | GI50 (UACC-62): 7.46 µM (inactive) | GI50 (UO-31): > 100 µM (inactive)

CCOC(=O)C(=O)C(/C(=N/N(C)C)C(=O)Nc1ccc(C)cc1C)c1nc2ccccc2nc1O (centres undefined)
GI50 (786-0): > 100 µM (inactive) | GI50 (A498): > 100 µM (inactive) | GI50 (A549): > 100 µM (inactive) | GI50 (ACHN): > 100 µM (inactive) | GI50 (BT-549): > 100 µM (inactive) | GI50 (CAKI-1): > 100 µM (inactive) | GI50 (CCRF-CEM): > 100 µM (inactive) | GI50 (EKVX): 49.1 µM (inactive) | GI50 (HCC 2998): > 100 µM (inactive) | GI50 (HCT-116): > 100 µM (inactive) | GI50 (HCT-15): > 100 µM | GI50 (HL-60): > 100 µM (inactive) | GI50 (HOP-62): > 100 µM (inactive) | GI50 (HOP-92): > 100 µM (inactive) | GI50 (HT-29): > 100 µM (inactive) | GI50 (Hs-578T): > 100 µM (inactive) | GI50 (IGROV-1): > 100 µM (inactive) | GI50 (K562): > 100 µM (inactive) | GI50 (KM12): > 100 µM (inactive) | GI50 (LOX IMVI): > 100 µM (inactive) | GI50 (M14): > 100 µM (inactive) | GI50 (MCF7): > 100 µM (inactive) | GI50 (MDA-MB-231): > 100 µM (inactive) | GI50 (MDA-MB-435): > 100 µM (inactive) | GI50 (MDA-N): > 100 µM (inactive) | GI50 (MOLT-4): > 100 µM (inactive) | GI50 (Malme-3M): > 100 µM (inactive) | GI50 (NCI-H226): > 100 µM (inactive) | GI50 (NCI-H23): > 100 µM (inactive) | GI50 (NCI-H460): > 100 µM (inactive) | GI50 (NCI-H522): > 100 µM (inactive) | GI50 (NCI/ADR-RES): > 100 µM (inactive) | GI50 (OVCAR-3): > 100 µM (inactive) | GI50 (OVCAR-4): > 100 µM (inactive) | GI50 (OVCAR-5): > 100 µM (inactive) | GI50 (OVCAR-8): > 100 µM (inactive) | GI50 (PC-3): > 100 µM (inactive) | GI50 (RPMI-8226): > 100 µM (inactive) | GI50 (RXF 393): > 100 µM (inactive) | GI50 (SF-268): > 100 µM (inactive) | GI50 (SF-295): > 100 µM (inactive) | GI50 (SF-539): > 100 µM (inactive) | GI50 (SK-MEL-28): > 100 µM (inactive) | GI50 (SK-MEL-2): > 100 µM (inactive) | GI50 (SK-MEL-5): > 100 µM (inactive) | GI50 (SK-OV-3): > 100 µM (inactive) | GI50 (SN12C): > 100 µM (inactive) | GI50 (SNB-19): > 100 µM (inactive) | GI50 (SNB-75): > 100 µM (inactive) | GI50 (SR): > 100 µM (inactive) | GI50 (SW-620): > 100 µM (inactive) | GI50 (T47D): > 100 µM (inactive) | GI50 (TK-10): > 100 µM (inactive) | GI50 (U-251): > 100 µM (inactive) | GI50 (UACC-257): > 100 µM (inactive) | GI50 (UACC-62): > 100 µM (inactive) | GI50 (UO-31): > 100 µM (inactive)
